We go through four compounds from publication PMC4961704, “Synthesis and Biological Evaluation of Thiophene-Based Cannabinoid Receptor Type 2 Radiotracers for PET Imaging” (Frontiers in Neuroscience, 2016).

“Also recorded” adds a separate entry of the source. Read-outs that look alike come from different tables or passages of the source.

The target of series [1] is T1, hCB1 (Homo sapiens, UniProt P21554).
T1 construct: purchased PerkinElmer; host or cells: CHO-K1 cells stably transfected
The arrangement: method as in earlier work. The note with it: known ligands, entry 1–3; ref Showalter et al., 1996; Lan et al., 1999; Valenzano et al., 2005; cited from earlier work.

The target of series [2] is T2, hCB2 (Homo sapiens, UniProt P34972).
T2 construct: purchased PerkinElmer; host or cells: CHO-K1 cells stably transfected
T2 sequence (P34972 whole entry): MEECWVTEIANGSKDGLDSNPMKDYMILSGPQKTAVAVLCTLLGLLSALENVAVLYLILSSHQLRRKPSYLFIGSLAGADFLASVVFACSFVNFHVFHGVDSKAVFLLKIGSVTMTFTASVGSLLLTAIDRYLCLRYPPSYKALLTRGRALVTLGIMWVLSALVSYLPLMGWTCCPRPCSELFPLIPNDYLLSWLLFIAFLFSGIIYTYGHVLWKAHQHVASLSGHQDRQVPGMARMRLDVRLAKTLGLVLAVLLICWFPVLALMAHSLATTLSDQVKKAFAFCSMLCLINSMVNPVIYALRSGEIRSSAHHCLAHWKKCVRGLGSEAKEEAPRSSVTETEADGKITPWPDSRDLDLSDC
Details: method as in earlier work. The conditions noted are these: known ligands, entry 1–3; ref Showalter et al., 1996; Lan et al., 1999; Valenzano et al., 2005; cited from earlier work.

Series [3] addresses T1, hCB1. Description: Competitive in vitro binding assay with [3H]CP-55,940, membranes of CHO-K1 cells stably transfected with hCB1. The note with it: displacement of [3H]CP-55,940 (1.4 nM), 30°C, 90 min; three independent experiments in triplicate; Cheng-Prusoff. (In general: In a radioligand displacement assay an active substance lowers the binding of a labelled ligand.)
Protocol: (§2) A dilution series ranging from 1 pM to 1 mM in assay buffer (50 mM TRIS, 1 mM EDTA, 3 mM MgCl2 and 0.05% bovine serum albumin, pH adjusted to 7.4) was prepared for each ligand to be tested. […] The samples were incubated at 30°C for 90 min and subsequently diluted with ice cold assay buffer (3 mL) in order to be vacuum-filtered through Whatman GF/C filters (pre-treated with aq. polyethylenimine, 0.05%). Each sample was washed twice with ice cold assay buffer (3 mL) and filtered again. After addition of scintillation cocktail (Ultima Gold, Perkin Elmer), radioactivity was measured using a Beckman LS 6500 Liquid Scintillation Counter. IC50 mean values were calculated after performing three independent experiments, each as triplicate.
(§3) Binding affinity studies were performed using membranes stably transfected with human CB1 and CB2, respectively.
Series [4] addresses T2, hCB2. The experiment in a line: Competitive in vitro binding assay with [3H]CP-55,940, membranes of CHO-K1 cells stably transfected with hCB2. The note with it: displacement of [3H]CP-55,940 (1.4 nM), 30°C, 90 min; three independent experiments in triplicate; Cheng-Prusoff.
Protocol: as §2, §3
The subject of series [5] is CB2-positive mouse spleen tissue. Description: In vitro autoradiography on mouse spleen tissue sections. The format is binding, CD1 mouse. The conditions noted are these: 5 nM radiotracer; baseline vs blockade with 10 μM GW405833; n = 2. Here is the method:
(§1) Autoradiography was performed on rat/mouse spleen tissue. Sections were prepared in 20 μm thickness using a cryostat (Cryo-Star NX 50; Thermo Scientific). The tissue slices were adsorbed to SuperFrost Plus (Menzel) slides and stored at −20°C until use. After thawing on ice for 10 min, sections were pre-incubated in the assay buffer containing 50 mM TRIS, 5 mM MgCl2, 2.5 mM EDTA, and 0.5% BSA (pH 7.4). […] In order to test for specificity toward CB2, a solution containing both radiotracer and an excess of CB2 specific partial agonist GW405833 (10 μM) was prepared and added to the tissue. The tissue slices were washed twice with assay buffer (each 2 min) and twice with distilled water (each 5 s) on ice, air dried, and exposed to a phosphor imager plate for a period of 25 min. The plate was scanned using a BAS5000 reader (Fujifilm, Dielsdorf, CH).

The test system of series [6] is CB2-positive rat spleen tissue. Description: In vitro autoradiography on rat spleen tissue sections. Format: binding, Wistar rat. The conditions noted are these: 5 nM radiotracer; baseline vs blockade with 10 μM GW405833; n = 2. As for the experimental part: as §1
Another series concerns CB2-positive spleen. Description: In vivo PET/CT of the spleen region after tail-vein injection. Details: species or system Wistar rat. Here is the method:
Under baseline conditions, radiotracer accumulation was recorded in the region of the spleen in dynamic PET acquisition mode over 60 min (n = 2). During this whole time period rats were kept under anesthesia, body temperature and respiratory rate were constantly monitored. Under blockade conditions, 1.5 mg/kg GW405833 was injected shortly before radiotracer application in two of the four rats. Acquired PET data were reconstructed as user-defined time frames with a voxel size of 0.3875 × 0.3875 × 0.775 mm. For anatomical orientation, CT scans were acquired after each PET scan. Images were evaluated with PMOD v3.4 (PMOD Technologies Inc., Zurich, CH) software. Regions of interest (spleen, liver, and muscle) were drawn manually using the PMOD fusion tool. Time activity curves (TACs) for spleen, liver and muscle were expressed as standardized uptake values (SUV) which are the decay-corrected radioactivity per cm^3 divided by the injected radioactivity dose per gram of body weight.

T1 sequence (P21554 whole entry): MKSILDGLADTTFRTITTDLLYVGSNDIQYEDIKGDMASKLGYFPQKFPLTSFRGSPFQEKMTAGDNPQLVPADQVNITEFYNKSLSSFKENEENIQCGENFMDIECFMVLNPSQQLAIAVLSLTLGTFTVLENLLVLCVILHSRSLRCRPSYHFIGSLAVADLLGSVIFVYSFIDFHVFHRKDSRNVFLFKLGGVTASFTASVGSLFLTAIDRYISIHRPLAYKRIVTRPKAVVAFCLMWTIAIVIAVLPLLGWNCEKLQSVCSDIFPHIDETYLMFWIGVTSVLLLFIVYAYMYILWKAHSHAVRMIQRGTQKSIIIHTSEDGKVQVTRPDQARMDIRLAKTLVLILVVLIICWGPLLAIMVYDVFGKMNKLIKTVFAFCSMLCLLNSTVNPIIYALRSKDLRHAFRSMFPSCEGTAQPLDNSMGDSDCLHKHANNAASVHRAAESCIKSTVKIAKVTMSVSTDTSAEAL

As to `COc1ccc2c(c1)c(CCN1CCOCC1)c(C)n2C(=O)c1cccc(Cl)c1Cl` [GW405833], the Ki (in general, a dissociation constant, usually derived from enzyme kinetics or from competition with a known ligand) is 4.77 ± 1.68 µM on hCB1 [1] and 0.0039 ± 0.0016 µM on hCB2 [2].

For `CCCc1c(C)sc(NC(=O)C23CC4CC(CC(C4)C2)C3)c1C(=O)OC` [AAT-778, Methyl 2-(adamantane-1-carboxamido)-5-methyl-4-propylthiophene-3-carboxylate], the Ki at hCB1 [3] came to 1.1 ± 0.1 µM; at hCB2 [4], 0.0043 ± 0.0007 µM.

Take `[11CH3]OC(=O)c1c(NC(=O)C23CC4CC(CC(O)(C4)C2)C3)sc2c1CCCC2` [[^11C]AAT-015]: the “specificity of binding to mouse spleen tissue (autoradiography)” value in series [5] is “high unspecific binding”. The “specificity of binding to rat spleen tissue (autoradiography)” value in series [6] is given as “high unspecific binding”. In the series with CB2-positive spleen (baseline, 10–15 MBq i.v., 0–60 min post injection), the “spleen uptake of radiotracer (PET)” value is reported as “no accumulation; also recorded: low uptake”. Moreover, in the series on CB2-positive spleen (blockade with 1.5 mg/kg GW405833 shortly before tracer, 60 min), the “spleen uptake, TACs baseline vs blockade (PET)” value is “no difference”.

On to `CCCc1c(C)sc(NC(=O)C23CC4CC(CC(C4)C2)C3)c1C(=O)O[11CH3]` [[^11C]AAT-778], for which, in series [5], the “specificity of binding to mouse spleen tissue (autoradiography)” value is recorded as “No blocking effect; also recorded: high unspecific binding”. For the same compound, the “specificity of binding to rat spleen tissue (autoradiography)” value in series [6] is “No blocking effect; also recorded: high unspecific binding”.
